The values that follow come from ChEMBL document CHEMBL4725326, “Synthesis, α-glucosidase inhibition, and molecular docking studies of novel N-substituted hydrazide derivatives of atranorin as antidiabetic agents” (Bioorg Med Chem Lett, 2020).

A short description of assay [1]: Inhibition of alpha-glucosidase (unknown origin). More on the design: species or system Homo sapiens.
The test system of assay [2] is HEK293. In words: Cytotoxicity against HEK293 cells assessed as reduction in cell viability. The note with it: Homo sapiens. It is filed as cell-based.

`COC(=O)c1c(C)cc(OC(=O)c2c(C)cc(O)c(/C=N/NC(=O)COc3ccc(C)cc3)c2O)c(C)c1O`: the IC50 (commonly the concentration at which inhibition is half-maximal) in assay [1] was 54.7 µM; in assay [2], more than 100 µM.

Regarding `COC(=O)c1c(C)cc(OC(=O)c2c(C)cc(O)c(/C=N/NC(=O)CSc3nc4ccccc4s3)c2O)c(C)c1O`, the IC50 in assay [1] was 9.12 µM; in assay [2] it was 70.1 µM.

With `COC(=O)c1c(C)cc(OC(=O)c2c(C)cc(O)c(/C=N/NC(=O)COc3ccccc3C)c2O)c(C)c1O`, the results for the IC50 in assay [1] and in assay [2] were 53.3 µM and more than 100 µM, respectively.

With `COC(=O)c1c(C)cc(OC(=O)c2c(C)cc(O)c(/C=N/NC(=O)COc3cccc(C)c3)c2O)c(C)c1O`, the half-maximal inhibitory concentration (IC50) was 40.6 µM in assay [1] and more than 100 µM in assay [2].

Consider `COC(=O)c1c(C)cc(OC(=O)c2c(C)cc(O)c(/C=N/NC(=O)c3cc(Cl)ccc3O)c2O)c(C)c1O`, for which the IC50 is 9.91 µM in assay [1] and 63.2 µM in assay [2].

With `COC(=O)c1c(C)cc(OC(=O)c2c(C)cc(O)c(/C=N/NC(=O)COc3ccc(Br)cc3)c2O)c(C)c1O`, the figures for the IC50 in assay [1] and in assay [2] were 17.3 µM and more than 100 µM, respectively.

For `COC(=O)c1c(C)cc(OC(=O)c2c(C)cc(O)c(/C=N/NC(=O)COc3cc4ccccc4o3)c2O)c(C)c1O`, the half-inhibitory concentration (IC50) in assay [1] was 39.7 µM; in assay [2] it was 84.4 µM.

On to `COC(=O)c1c(C)cc(OC(=O)c2c(C)cc(O)c(/C=N/NC(=O)CNc3ccc(C)cc3)c2O)c(C)c1O`, for which the IC50 in assay [1] was 31.5 µM; in assay [2], more than 100 µM.

Regarding `COC(=O)c1c(C)cc(OC(=O)c2c(C)cc(O)c(/C=N/NC(=O)COc3ccc4ccccc4c3)c2O)c(C)c1O`, the half-maximal inhibitory concentration (IC50) in assay [1] is 18.9 µM; in assay [2], 52.7 µM.

As to `COC(=O)c1c(C)cc(OC(=O)c2c(C)cc(O)c(/C=N/NC(=O)c3cc(I)ccc3O)c2O)c(C)c1O`, the results for the half-maximal inhibitory concentration (IC50) in assay [1] and in assay [2] were 41.2 µM and 94.1 µM, respectively.

Consider `COC(=O)c1c(C)cc(OC(=O)c2c(C)cc(O)c(/C=N/NC(=O)Cc3ccccc3)c2O)c(C)c1O`, for which the IC50 is 6.67 µM in assay [1] and more than 100 µM in assay [2].

Take `COC(=O)c1c(C)cc(OC(=O)c2c(C)cc(O)c(/C=N/NC(=O)COc3cc(C)ccc3C(C)C)c2O)c(C)c1O`: the values for the IC50 in assay [1] and in assay [2] were 28.1 µM and more than 100 µM, respectively.

`C[C@H]1O[C@H](O[C@H]2[C@H](O)[C@@H](O)[C@@H](O[C@H]3[C@H](O)[C@@H](O)C(O)O[C@@H]3CO)O[C@@H]2CO)[C@H](O)[C@@H](O)[C@@H]1N[C@H]1C=C(CO)[C@@H](O)[C@H](O)[C@H]1O` (some centres not stated) [ACARBOSE] yielded an IC50 in assay [1] of 93.6 µM.

For the molecule `COC(=O)c1c(C)cc(OC(=O)c2c(C)cc(O)c(C=O)c2O)c(C)c1O` [ATRANORIN], the IC50 in assay [1] was more than 100 µM.

`COc1cccc2c1C(=O)c1c(O)c3c(c(O)c1C2=O)C[C@@](O)(C(=O)CO)C[C@@H]3O[C@H]1C[C@H](N)[C@H](O)[C@H](C)O1` [DOXORUBICIN]: the IC50 in assay [2] was 7.92 µM.
